Tests used:
MEC1 cells [1] = assay: Ex vivo growth/survival of MEC1 cells; assay type: cell-based, human
[2] = system: spontaneously arising lymphomas; assay: 2DG in drinking water, spontaneous lymphomas of SJL.CD8a−/− mice; assay type: in vivo, mouse
Excerpt: To test the extent to which inhibition of glycolysis by 2DG alleviated these spontaneously arising lymphomas, a cohort of SJL.CD8a−/− female mice were aged to […] of age and were monitored for signs of lymphoma development. Visible growth was most evident in cervical lymph nodes and in some cases in spleens (indicated by arrows, FIG. 1A). Once tumors were sufficiently large to palpate, mice were placed on water with 6 g/L of dissolved 2DG provided ad libitum and monitored weekly for tumor reduction. […] Photographs of the tumors were taken weekly to document disease regression, and the time points, in weeks, at which the tumors visibly shrank or, later, reemerged, were recorded.
Female SJL.CD8a−/− mice were obtained from the Jackson Laboratory. Mice were aged and checked weekly for splenic or lymphatic tumors. […] Tumors were monitored and photographed weekly for signs of disease regression or progression.
SJL.CD8a−/− female mice were aged and monitored for signs of tumor development weekly after reaching 6 months of age. Tumors were found on mice in between 7 to 12 months of age. Once tumors had reached a clearly visible size, the mice were given water with 6 g/L of dissolved 2DG provided ad libitum. This concentration of 2DG in the water supplied the mice with a daily dose of approximately 960 mg/kg of 2DG. Mice were monitored weekly to determine changes in tumor mass. Photographs of the tumors were taken weekly to gauge whether the tumor was shrinking, expanding, or maintaining their size and to provide an estimate of the overall health of the mice. Treatments lasted for 11 weeks or until the tumors returned and mice became too sick to continue in the study. The treatment of one mouse was carried out to week 16 to determine what, if any, side effects would occur with prolonged 2DG exposure. […] Dates on which tumor shrinkage was observed, as well as dates on which tumor reemergence was observed, were recorded.

MEC1 cells [3] = assay: MEC1 xenograft in NRG mice, tumor burden by human CD19+ cells (flow cytometry); assay type: in vivo
Protocol: (§1) To test that hypothesis, the two cell lines were tested for 2DG sensitivity in vivo: immunodeficient NOD.Cg-Rag1^tm1MomIl2rg^tm1Wjl/SzJ (NRG™) mice were xenografted with either MEC1 or CCRF-SB cells, and the mice were then treated with 200 μL of 600 mM 2DG or glucose I.P. three times per week for two weeks. Both MEC1 and CCRF-SB cells migrate to the spleen and bone marrow, and since these mice […] CD19+ B-cells, the tumor burden can be measured terminally in these organs by anti-human CD19 staining via flow cytometry after euthanasia at the end of the treatment period.
Because DIDS was effective in reducing numbers of MEC1 B-cells ex vivo, its effectiveness was tested in vivo. […] MEC1 cells were xenografted into immunodeficient NRG™ mice for two weeks, and mice were then treated either with DIDS at 50 mg/kg or with a 0.1 M potassium bicarbonate/PBS vehicle, once per week for an additional two weeks. NRG™ mice were used because they were deficient in CD19 cells, allowing quantification of MEC1 B-cells by staining spleen cells for human CD19, as the spleen is a homing organ for MEC1 B-cells, all of which are positive for CD19.
Mice were treated I.P. three times weekly for two weeks. 1) mice were dosed I.P. with 10 mg/kg DIDS, a fifth of the dose required to elicit an effect in vivo (FIG. 4D); 2) mice were treated I.P. with 220 mg/kg of 2DG or glucose; a third of the dose of 2DG required for an effect (FIG. 3C); 3) mice were treated with both DIDS and 2DG, at the same doses used in the first two groups; 4) as a positive control, mice were treated with fludarabine, a compound frequently used to treat CLL, at 35 mg/kg, a dose commonly used to elicit an effect; and 5) as a negative control, mice were treated with vehicle consisting of glucose in PBS (41). Following the 2-week treatment period, bone marrow and spleens were assessed for tumor burden, by determining the percentages of human CD19-positive cells via flow cytometry (FIG. 5C).
(§2) Human cancer cell lines were xenografted into NRG mice in the following way: Cells grown in flasks were given fresh media the night before xenograftment and seeded at 10^6 cells per mL. The next day, the cells were washed twice with DPBS without calcium or magnesium and resuspended to 1-2×10^8 cells per mL of DPBS at room temperature and immediately injected via tail vein at 100 μL per mouse. The cells were given 7-10 days to fully xenograft, after which tumor load in the blood was assessed via flow cytometry (FACSCaliber II) for human CD19+ cells (Antibody cat no. 555413, BD Parmingen). Mice with similar tumor loads were assigned to different treatment groups to decrease bias and ensure more even tumor load across treatments. Mice were treated as described in the Results section for two weeks unless otherwise indicated. Upon euthanasia, the spleen and the bone marrow were harvested and stained for human CD19, and the cells were measured by flow cytometry on the FACSCaliber II. Analysis of the flow data was done by Flowjo version 8.8.7 (BD Pharmingen).
Xenografts were done as follows: NOD. Rag1−/− IL-2rg−/− (NRG) mice obtained from the Jackson Laboratory were xenografted for one to two weeks with Non Hogdkin's Leukemia CCRFSB, Chronic lymphocytic leukemia MEC1 cells or MEC1 cells carrying the luciferase gene (MEC1_LUC). Mice were then randomly assigned to treatment or vehicle cohort, and treated for two weeks.

TM00244 = assay: PDX lung carcinoma TM00244 xenografted in NSG mice, 2DG vs glucose; assay type: in vivo, human; conditions: 200 μL of 600 mM 2DG I.P. three times weekly, 4 weeks, glycolysis-independent PDX
Excerpt: (§3) The effects of 2DG in human lung carcinoma PDX (patient-derived xenograft) models were eventuated. While it is understood that 2DG primarily affects glycolysis, studies have shown that 2DG can interfere with other systems, such as the cell cycle, independently of its effects on metabolism (8, 32, 33). Changes in the cell cycle would affect the proliferation of cancer cells, and would ultimately influence tumor growth. To test whether 2DG affects glycolysis independently of proliferation, two PDX human lung carcinomas (TM00244 and TM00921) with similar growth kinetics (FIG. 2A) but differing in the use of glycolytic pathways (Table 1) were tested.
(§4) Tumors from these two carcinomas were xenografted into immunodeficient NOD.Scid.IL2R gamma null (NSG™) mice, and, after tumors of a measurable size (>50 mm^3) were observed, mice of each model were treated with 200 μL of either 600 mM 2DG or glucose three times weekly via I.P. injection.
(§5) Patient-derived xenograft (PDX) tumors were obtained from the JAX PDX Resource. Tumor fragments were minced separately and xenografted subcutaneously in an NSG mouse to establish P1. Upon growth of the tumor fragment, the tumor was harvested, minced, and xenografted in multiple mice to establish P2 mice. All experiments were conducted on P2 or higher mice that arose from engraftment from one of multiple tumor fragments.

TM00921 = assay: PDX lung carcinoma TM00921 xenografted in NSG mice, 2DG vs glucose; assay type: in vivo, human; conditions: 200 μL of 600 mM 2DG I.P. three times weekly, 4 weeks, glycolysis-dependent PDX
Excerpt: as §3, §4, §5

thymic lymphomas = assay: 2DG I.P. in Trp53−/− mouse model of thymic lymphoma; assay type: in vivo
Protocol: Next, a more homogeneous and acute spontaneously arising lymphoma was tested. In addition, the extent to which 2DG could affect a purely T-cell lymphoma was tested. To meet all of these criteria, a classic mouse model of T-cell cancer, the p53-deficient mouse (31) was used. […] To test the effect of 2DG on these thymic lymphomas, […].

CCRF-SB cells = assay: CCRF-SB xenograft in NRG mice, tumor burden by human CD19+ cells; assay type: in vivo; conditions: 200 μL of 600 mM 2DG I.P. three times per week for two weeks, vs glucose
Protocol: as §1
as §2, with “Mice with similar tumor loads were assigned to different treatment groups to decrease bias and ensure more even tumor load across treatments. Mice were treated as described in the Results section for two weeks unless otherwise indicated.” left out, “Analysis of the flow data was done by Flowjo version 8.8.7 (BD Pharmingen).” left out

[4] = system: human CLL cells from patients; conditions: patient cells ex vivo; reference (17); cited from earlier work
[5] = system: AID-positive neoplastic cell lines; conditions: tissue culture; reference (17); cited from earlier work
[6] = system: splenocytes, live white blood cells (CD45+ Ter119-PI−); assay: In vivo DIDS treatment of AID-null mice followed by ex vivo ionizing radiation of splenocytes; design: species or system mouse
Protocol: Whether DIDS could block repair of AID-independent double-strand breaks (frank or single-strand staggered double-strand breaks) in vivo was determined. A common way to generate double-strand breaks is via ionizing radiation (1, 38, 39). For this, AID-null mice were treated with different concentrations of DIDS (0, 5, or 10 mg/kg) for eight hours, and then harvested splenocytes and treated them with different doses of IR (0, 1, 5, 10 Gy). Eighteen hours after IR, the numbers of live white blood cells (CD45+ Ter119-PI−) were measured by flow cytometry.

[7] = system: AID knock-out MEC1 (AKO) cells; assay: Ex vivo growth of AID knock-out MEC1 (AKO) cells; assay type: cell-based, human; conditions: DIDS vs vehicle
Protocol: (§6) Theoretically, this would result in a truncated, non-functional AID, which was termed AID knock-out MEC1 (AKO) cells. To test the dependence of DIDS on AID, AKO cells were treated with DIDS and compared their growth with that of parental MEC1 cells. […] To test whether AID sufficiency was required for DIDS efficacy in vivo, AKO and parental cells were xenografted in NRG™ mice, and mice were treated with 50 mg/kg of DIDS for two weeks. […] Thus, the therapeutic effect of DIDS in MEC1 xenografts depended on AID.
AID knock out (AKO) MEC1 cell lines were developed by targeting Exon 2 of AID with the following guide RNAs: CTTGATGAACCGGAGGAAG (SEQ ID NO: 1), GTCCGCTGGGCTAAGGGTC (SEQ ID NO: 2), GTGCTACATCCTTTTCAC (SEQ ID NO: 3). These guides were cloned into the Cas9-EGFP vector, pX330 (Addgene, Cat. no. 66582). These vectors were nucleofected into MEC1 cells using Amaxa Cell Line Nucleofector Kit V using program X-001, and according to manufacturer's instructions (Lonza, Cat. no. VACA-1003). Nucleofected cells were sorted for GFP positivity and cloned by limited dilution to generate AKO cell lines. Two independent AKO cell lines (14-1 and 14-3) were confirmed for AID nullizygosity using both genomic and transcript PCRs.

[8] = system: AID knock-out MEC1 (AKO) cells; assay: AKO cell xenograft in NRG mice treated with DIDS; assay type: in vivo, human; conditions: DIDS 50 mg/kg for two weeks
Protocol: as §6
as §2, with “Mice with similar tumor loads were assigned to different treatment groups to decrease bias and ensure more even tumor load across treatments. Mice were treated as described in the Results section for two weeks unless otherwise indicated.” left out, “Analysis of the flow data was done by Flowjo version 8.8.7 (BD Pharmingen).” left out

[9] = one mouse, 2DG 6 g/L in water carried out to week 16
[10] = 200 μL of 600 mM 2DG I.P. three times per week for two weeks, vs glucose

OCC1O[C@H](O)C[C@@H](O)[C@@H]1O (mixture of isomers) [2DG, 2-deoxy-D-glucose]
effect on MEC1 cell numbers (MEC1 cells [1]; 2DG 0.2 mM alone, 48 hours): does not have an effect on its own | adverse side effects by gross observation (weight loss, lethargy, lack of grooming) ([2]; 2DG 6 g/L in drinking water, at any time during treatment): no adverse side effects of this treatment were observed | time within which tumors returned ([2]; 2DG 6 g/L in drinking water, despite continuation of treatment): 5-11 weeks | mice of the six responders in which tumors returned ([2]; 2DG 6 g/L in drinking water, treatment continued): four | treatment time at which tumor regression was evident ([2]; 2DG 6 g/L in drinking water, N=7): two to three | appearance of greatly enlarged spleen (representative mouse) ([2]; FIG. 1A legend, 2DG 6 g/L in drinking water): returned to normal appearance after two weeks of treatment | fraction of mice with tumor resurgence ([2]; FIG. 1B legend, after 5-11 weeks of 2DG treatment, N=7): approximately ¾ | adverse effects with prolonged 2DG exposure [2, 9]: no adverse effects were noted | tumor return under prolonged treatment [2, 9]: This tumor never returned | tumor burden (% hCD19+) in bone marrow (MEC1 cells [3]; 2DG alone 220 mg/kg I.P. three times weekly for two weeks): elicited as much effect as the combination treatment | tumor burden (human CD19+ cells) in bone marrow (MEC1 cells [3]; [10]): significant reductions in numbers | tumor burden (human CD19+ cells) in spleen, sensitivity to 2DG (MEC1 cells [3]; [10]): those in the spleen did not | tumor size (TM00244): no difference in tumor size | tumor volume (TM00921): significantly smaller tumor volume | duration of inactivity upon injection (thymic lymphomas; 2DG 670 mg/kg I.P.): 10 to 60 min | protection from developing neoplasms (survival curve) (thymic lymphomas; 2DG 670 mg/kg I.P. three times weekly from 14 weeks of age for 10 weeks, vs glucose): significantly protected from developing neoplasms | weight gain (thymic lymphomas; 2DG 670 mg/kg I.P. three times weekly, vs glucose-treated mice): lower weight gain compared to glucose-treated mice, although the difference did not achieve significance | tumor burden (human CD19+ cells) in spleens or bone marrow (CCRF-SB cells): no significant response to 2DG

O=S(=O)(O)c1cc(N=C=S)ccc1/C=C/c1ccc(N=C=S)cc1S(=O)(=O)O [DIDS, 4,4′-Diisothiocyano-2,2′-stilbenedisulfonic acid]
cytotoxic effect on MEC1 B-cells (MEC1 cells [1]; DIDS 0.05 mM, 5 days, 2×10^5 cells): Cytotoxic effects of DIDS on MEC1 B-cells were seen as early as 5 days | cytotoxic effect on MEC1 B-cells (MEC1 cells [1]; DIDS 0.1 and 0.2 mM, after 5 days): significant effect was observed | cell numbers (MEC1 cells [1]; DIDS alone, titrated, day 2): reduction of cell numbers as the concentration of DIDS was increased | mice showing significant (p=0.001) reduction in number of MEC1 cells in the spleen (MEC1 cells [3]; DIDS 50 mg/kg once per week for two weeks, vs vehicle): 10/11 | tumor burden in vivo (luciferase imaging, flow cytometry of bone marrow and spleen) (MEC1 cells [3]; FIG. 10 legend, MEC1 or MEC1 LUC, DIDS 50 mg/kg for two weeks): a high dose of DIDS is required to reduce tumor burden in vivo | targeting of AID-positive vs AID-negative human CLL cells [4]: targeted AID-positive, but not AID-negative, human CLL cells | targeting of AID-positive neoplastic cell lines [5]: could specifically target AID-positive neoplastic cell lines in tissue culture | survival of cells after IR ([6]; DIDS 0, 5 or 10 mg/kg for eight hours in AID-null mice, IR 0, 1, 5, 10 Gy ex vivo, eighteen hours after IR): in the presence of DIDS, the effect is significantly greater | cell ablation at 10 Gy, normalized to 0 mg/Kg DIDS ([6]; IR 10 Gy, DIDS 5 or 10 mg/kg): even a tenth of the dose of DIDS can synergistically enhance the severity of cell ablation | growth rate of AKO cells [7]: grew at a similar rate regardless of whether the cells were treated with vehicle or DIDS | spleen weights, AKO vs parental MEC1 [8]: AKO cells were more resistant to DIDS | tumor burden by percentages of human CD19 cells, AKO vs parental MEC1 [8]: AKO cells were more resistant to DIDS
